Laboratory results from patent publication US9440982B2 (Eolas Therapeutics, Inc., priority 2012, dated 2016).

molecular target: T1, OX1 (Homo sapiens, UniProt O43613); assay: Orexin receptor cell-based functional assay, [Ca2+]i by FLIPR, CHO-OX1 cells; details: CHO-OX1 cells, [Ca2+]i by FLIPR, antagonist dose-range 0.1 nM-10 μM, EC90 of OXA; read-out: OX1
T1 construct: expressed in transfected cells; host or cells: CHO (CHO-OX1, kept under selection antibiotic)
T1 sequence (O43613 1-425): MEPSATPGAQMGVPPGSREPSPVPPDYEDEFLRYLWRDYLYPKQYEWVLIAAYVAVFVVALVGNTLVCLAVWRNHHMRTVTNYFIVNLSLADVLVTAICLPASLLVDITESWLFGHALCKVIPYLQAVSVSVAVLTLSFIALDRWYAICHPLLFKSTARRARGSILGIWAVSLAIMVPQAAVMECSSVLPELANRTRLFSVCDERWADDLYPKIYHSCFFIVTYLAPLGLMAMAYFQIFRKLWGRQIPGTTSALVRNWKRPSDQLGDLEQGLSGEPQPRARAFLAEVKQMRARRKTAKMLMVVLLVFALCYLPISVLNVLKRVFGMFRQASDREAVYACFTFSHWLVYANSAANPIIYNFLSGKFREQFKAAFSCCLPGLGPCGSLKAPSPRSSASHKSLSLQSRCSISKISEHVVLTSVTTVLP
Procedure: Measurement of [Ca^2+]i using a FLIPR: CHO—OX1 or CHO—OX2 cells are seeded into black-walled clear-base 384-well plates (Costar) at a density of 20,000 cells per well in F12-K medium supplemented with 10% FBS and selection antibiotic (500 ug/ml G418 or 15 ug/ml Blasticidin) and cultured overnight. The cells are incubated with equal volume of calcium4 loading buffer (Molecular Devices, Inc.) containing 2.5 mM probenecid at 37° C. for 30 min, followed by putative OX1 or OX2 receptor antagonists (dose-range 0.1 nM-10 μM) for another 30 min.
The cells are incubated with equal volume of calcium6 loading buffer (Molecular Devices, Inc.) containing 2.5 mM probenecid at 37° C. for 2 h, followed by test compounds (dose-range 0.1 nM-10 μM) for another 30 min.

Point of comparison: `Cc1ccc(-c2ccccn2)c(C(=O)N2CCC[C@@H](C)[C@H]2CNc2ccc(C(F)(F)F)cn2)n1` [Example A217, ((2S,3R)-3-Methyl-2-(((5-(trifluoromethyl)pyridin-2-yl)amino)methyl)piperidin-1-yl)(6′-methyl-[2,3′-bipyridin]-2′-yl)methanone], IC50 150 nM. Against it:
- COc1ccc(-n2nccn2)c(C(=O)N2CCC[C@@H](C)[C@H]2CNc2ncc(C(F)(F)F)cn2)c1F [Example A339, (2-Fluoro-3-methoxy-6-(2H-1,2,3-triazol-2-yl)phenyl)((2S,3R)-3-methyl-2-(((5-(trifluoromethyl)pyrimidin-2-yl)amino)methyl)piperidin-1-yl)methanone] — 30-fold lower, 5 nM
- Cc1ccc(-n2nccn2)c(C(=O)N2CC3CCCC3C2CNc2ccc(C(F)(F)F)cn2)c1 (centres unmarked) [Example A69, (5-Methyl-2-(2H-1,2,3-triazol-2-yl)phenyl)(1-(((5-(trifluoromethyl)pyridin-2-yl)amino)methyl)hexahydrocyclopenta[c]pyrrol-2(1H)-yl)methanone] — 7.1-fold lower, 21 nM
- COc1c(F)cccc1C(=O)N1CCC[C@@H](C)[C@H]1CNc1ccc(C(F)(F)F)cn1 [Example A75, (3-Fluoro-2-methoxyphenyl)((2S,3R)-3-methyl-2-(((5-(trifluoromethyl)pyridin-2-yl)amino)methyl)piperidin-1-yl)methanone] — 8.7-fold higher, 1300 nM
- Cc1ccc(C(=O)N2CCC[C@@H](C)[C@H]2CNc2ncc(C(F)(F)F)cn2)c(-n2nccn2)c1 [Example A272, ((2S,3R)-3-Methyl-2-(((5-(trifluoromethyl)pyrimidin-2-yl)amino)methyl)piperidin-1-yl)(4-methyl-2-(2H-1,2,3-triazol-2-yl)phenyl)methanone] — 11-fold lower, 14 nM
- Cc1ccc(-c2ccnn2C)c(C(=O)N2CCC[C@@H](C)[C@H]2CNc2nc3cc(Cl)ccc3o2)c1 [Example A50, ((2S,3R)-2-(((5-Chlorobenzo[d]oxazol-2-yl)amino)methyl)-3-methylpiperidin-1-yl)(5-methyl-2-(1-methyl-1H-pyrazol-5-yl)phenyl)methanone] — 1.5-fold higher, 230 nM
- Cc1nc(C(=O)N2CCCC3CN(c4ccc(C(F)(F)F)cn4)CC32)c(-c2ccc(F)cc2)s1 (centres unmarked) [Example A77, (5-(4-Fluorophenyl)-2-methylthiazol-4-yl)(6-(5-(trifluoromethyl)pyridin-2-yl)octahydro-1H-pyrrolo[3,4-b]pyridin-1-yl)methanone] — higher, > 1000 nM
- Cc1ccc(NC[C@@H]2[C@H](C)CCCN2C(=O)c2cc(C)ccc2-c2cnn(C)c2)nc1 [Example A49, ((2S,3R)-3-Methyl-2-(((5-methylpyridin-2-yl)amino)methyl)piperidin-1-yl)(5-methyl-2-(1-methyl-1H-pyrazol-4-yl)phenyl)methanone] — 3.3-fold higher, 500 nM
- C[C@@H]1CCCN(C(=O)c2c(-n3nccn3)ccc(F)c2F)[C@@H]1CNc1ncc(C(F)(F)F)cn1 [Example A337, (2,3-Difluoro-6-(2H-1,2,3-triazol-2-yl)phenyl)((2S,3R)-3-methyl-2-(((5-(trifluoromethyl)pyrimidin-2-yl)amino)methyl)piperidin-1-yl)methanone] — 17-fold lower, 9 nM
- Cc1ccc(-c2cccnc2)c(C(=O)N2CCC[C@@H](C)[C@H]2CNc2ccc(Cl)cn2)n1 [Example A224] — 12-fold lower, 13 nM

same assay, conditions: Table 2; CHO-OX1 cells, EC90 of OXA; read-out: IC50 Bioactivity OX1

Point of comparison: `Cc1nc(-c2ccccc2)c(C(=O)N2CCC(=O)[C@H]2CNC(=O)c2cccc3cccnc23)s1` [Example 132, (R)—N-((1-(2-Methyl-4-phenylthiazole-5-carbonyl)-3-oxopyrrolidin-2-yl)methyl)quinoline-8-carboxamide], IC50 230 nM. Against it:
- Cc1nc(C(=O)N2CCC[C@@H](C)[C@H]2CNC(=O)c2cccc3occc23)c(-c2ccc(F)cc2)s1 (racemic) [Example 63, rac-cis-N-((1-(5-(4-Fluorophenyl)-2-methylthiazole-4-carbonyl)-3-methylpiperidin-2-yl)methyl)benzofuran-4-carboxamide] — 120-fold lower, 2 nM
- Cc1nc(C(=O)N2CCC[C@@H](C(F)(F)F)[C@H]2CNc2ccc(C(F)(F)F)cn2)c(-c2ccccc2)s1 (racemic) [Example 14, rac-cis-(2-Methyl-5-phenylthiazol-4-yl)(3-(trifluoromethyl)-2-(((5-(trifluoromethyl)pyridin-2-yl)amino)methyl)piperidin-1-yl)methanone] — 26-fold lower, 9 nM
- Cc1nc(-c2ccccc2)c(C(=O)N2CC(NC(C)C)CCC2CNC(=O)c2cccc3cccnc23)s1 (racemic) [Example 48, N-((5-(Isopropylamino)-1-(2-methyl-4-phenylthiazole-5-carbonyl)piperidin-2-yl)methyl)quinoline-8-carboxamide] — not separable, < 10000 nM
- Cc1nc(C(=O)N2CC(F)(F)CCC2CNC(=O)c2cccc3cccnc23)c(-c2cccc(F)c2)s1 (racemic) [Example 52, rac-N-((5,5-Difluoro-1-(5-(3-fluorophenyl)-2-methylthiazole-4-carbonyl)piperidin-2-yl)methyl)quinoline-8-carboxamide] — 230-fold lower, 1 nM
- Cc1nc(C(=O)N2CCC[C@@H](C)[C@H]2CNc2nccnc2Cl)c(-c2ccc(F)cc2)s1 (racemic) [Example 121, rac-cis-(2-(((3-Chloropyrazin-2-yl)amino)methyl)-3-methylpiperidin-1-yl)(5-(4-fluorophenyl)-2-methylthiazol-4-yl)methanone] — higher, > 1000 nM
- Cc1nc(C(=O)N2CC(NCCO)CCC2CNC(=O)c2cccc3cccnc23)c(-c2cccc(F)c2)s1 (racemic) [Example 54, N-((1-(5-(3-Fluorophenyl)-2-methylthiazole-4-carbonyl)-5-(2-hydroxyethylamino)piperidin-2-yl)methyl)quinoline-8-carboxamide] — within 1.5-fold, 180 nM
- O=C(NCC1C2CCC(CC2)N1C(=O)c1ccccc1-c1ccccc1)c1cccc2cccnc12 (racemic) [Example 140, N-(((1s,4s)-2-([1,1′-Biphenyl]-2-carbonyl)-2-azabicyclo[2.2.2]octan-3-yl)methyl)quinoline-8-carboxamide] — lower, < 100 nM
- Cc1nc(C(=O)N2CC(O)CCC2CNC(=O)c2cccc3cccnc23)c(-c2cccc(F)c2)s1 (racemic) [Example 51, N-((1-(5-(3-Fluorophenyl)-2-methylthiazole-4-carbonyl)-5-hydroxypiperidin-2-yl)methyl)quinoline-8-carboxamide] — 23-fold lower, 10 nM
- C[C@@H]1CCCN(C(=O)c2ccccc2OC(F)(F)F)[C@@H]1CNc1ncc(Cl)cn1 (racemic) [Example 122, rac-cis-(2-(((5-Chloropyrimidin-2-yl)amino)methyl)-3-methylpiperidin-1-yl)(2-(trifluoromethoxy)phenyl)methanone] — 15-fold higher, 3500 nM
- Cc1nc(C(=O)N2C[C@H]3CCC[C@H]3C2COc2nc3ccccc3o2)c(-c2ccc(F)cc2)s1 (mixture of isomers) [Example 102, (1-((Benzo[d]oxazol-2-yloxy)methyl)hexahydrocyclopenta[c]pyrrol-2(1H)-yl)(5-(4-fluorophenyl)-2-methylthiazol-4-yl)methanone] — higher, > 1000 nM
- Cc1nc(C(=O)N2CCC[C@@H](C)[C@H]2CNc2ccnc(Cl)n2)c(-c2ccc(F)cc2)s1 (racemic) [Example 19, rac-cis-(2-(((2-Chloropyrimidin-4-yl)amino)methyl)-3-methylpiperidin-1-yl)(5-(4-fluorophenyl)-2-methylthiazol-4-yl)methanone] — within 1.5-fold, 270 nM
- Cc1ccc(-c2cnc(N3CCN(C)CC3)nc2)c(C(=O)N2CCC[C@@H](C)[C@H]2CNc2ccc(C(F)(F)F)cn2)c1 (racemic) [Example 109, rac-cis-(3-Methyl-2-(((5-(trifluoromethyl)pyridin-2-yl)amino)methyl)piperidin-1-yl)(5-methyl-2-(2-(4-methylpiperazin-1-yl)pyrimidin-5-yl)phenyl)methanone] — higher, > 1000 nM
- Cc1nc(-c2ccccc2)c(C(=O)N2C[C@@H]3CCCC[C@@H]3[C@H]2CNC(=O)c2cccc3cccnc23)s1 (racemic) [Example 64, N-(((1S,3aR,7aS)-2-(2-Methyl-4-phenylthiazole-5-carbonyl)octahydro-1H-isoindol-1-yl)methyl)quinoline-8-carboxamide] — 13-fold higher, 3000 nM
- Cc1ccc(-c2ncccn2)c(C(=O)N2CCC[C@@H](C)[C@H]2CNc2ccc(C(F)(F)F)cn2)c1 (racemic) [Example 112, rac-cis-(3-Methyl-2-(((5-(trifluoromethyl)pyridin-2-yl)amino)methyl)piperidin-1-yl)(5-methyl-2-(pyrimidin-2-yl)phenyl)methanone] — 14-fold lower, 17 nM
- CO[C@@H]1CCCN(C(=O)c2nc(C)sc2-c2ccc(F)cc2)[C@@H]1CNc1ccc(C(F)(F)F)cn1 (racemic) [Example 92, rac-cis-(3-Methoxy-2-(((5-(trifluoromethyl)pyridin-2-yl)amino)methyl)piperidin-1-yl) (5-(4-fluorophenyl)-2-methylthiazol-4-yl)methanone] — 2.4-fold higher, 560 nM
